Reference: patent US20250375440A1, “COMPOSITION AND METHOD OF TREATING CANCER ASSOCIATED WITH EGFR MUTATION” (BEYONDSPRING PHARMACEUTICALS, INC., priority 2018, published 2025)

System: NCI-H1975 Human Lung Cancer Xenograft
Assay: subcutaneous NCI-H1975 Human Lung Cancer Xenograft Model in Balb/c Nude Mice, tumor size
Assay type: in vivo, Mus Musculus (Balb/c nude mice)
Conditions: single agent
Description: The therapeutic efficacy of Osimertinib and Plinabulin were tested in vivo. The two drugs were tested as a single agent and in combination in the treatment of subcutaneous NCI-H1975 Human Lung Cancer Xenograft Model in Balb/c Nude Mice. The administration of the test articles and the animal numbers in each study group were shown in the following experimental design table 1. [table] Study endpoints: The major endpoints of the study include the followings: Tumor growth inhibition (TGI): TGI % was an indication of antitumor effectiveness, and expressed as: TGI (%)=100×(1-T/C). T and C were the mean tumor volume (or weight) of the treated and control groups, respectively, on a given day. The test uses 6-8 weeks female mice (species: Mus Musculus, Strain: Balb/c nude). The average body weight of the mice was 18-22 g. A total of 84 mice (60 plus 40% spare) were used. The animals were housed in individual ventilated cages (up to 5 mice per cage) under the following conditions: Temperature: 20˜26° C.; Humidity: 40-70%; Light cycle: 7:00 am-19:00 pm light and 19:00 pm-7:00 am (next day) darkness; Polysulfone IVC cage: size of 325 mm×210 mm×180 mm; Bedding material: corn cob; Diet: Mouse diet, Co60 irradiation sterilized dry granule food. Animals have free access during the entire study period; Water: Reverse osmosis (RO) water, autoclaved before using. […] The cells growing in an exponential growth phase were harvested and counted for tumor inoculation. […] Group assignment: Before grouping and treatment, all animals were weighed and the tumor volumes were measured using a caliper. […] During routine monitoring, the animals were checked for any effects of tumor growth and treatments on normal behavior such as mobility, visual estimation of food and water consumption, body weight gain/loss (body weights were measured twice per week), eye/hair matting and any other abnormal effect. […]

| Structure (SMILES) | tumor size change after tumor inoculation (Group 2, osimertinib 2.5 mg/kg p.o. QD x 5/wk) | tumor size change after tumor inoculation (Group 3, plinabulin 7.5 mg/kg i.p. BIW 2 wks) | tumor size change after tumor inoculation (Group 4, plinabulin 2.5 mg/kg i.p. BIW 2 wks) |
| --- | --- | --- | --- |
| C=CC(=O)Nc1cc(Nc2nccc(-c3cn(C)c4ccccc34)n2)c(OC)cc1N(C)CCN(C)C [osimertinib, reference compound] | control over the tumor size and slight increase in tumor size after the animals were tested for 15 days | – | – |
| CC(C)(C)c1[nH]cnc1/C=c1\[nH]c(=O)/c(=C/c2ccccc2)[nH]c1=O [plinabulin, (3Z,6Z)-3-Benzylidene-6-{[5-(2-methyl-2-propanyl)-1H-imidazol-4-yl]methylene}-2,5-piperazinedione] | – | tumor size increases | tumor size increases |
